Results from paper PMC9669016, “First-in-human phase Ia study of the PI3Kα inhibitor CYH33 in patients with solid tumors” (Nature Communications, 2022).

System: SD rats
Assay: Long-term toxicity assay, SD rats
Format: in vivo
Conditions: 3 mg/kg x 0.162 x 60 kg
Excerpt: Shanghai Haihe Biopharma Co., Ltd. Protocol No.: CYH33-101, Version: 5.0 […]
in hepatocytes was sign ificantly higher in dogs than in other species. The extent of hydrolytic metabolism of amide bonds in monk ey hepatocytes was low, but the extent of oxidative metabolism (M5, M6) was higher than that in other animal species. Oxidative metabolites of CYH33 were not detected in hum an hepatocytes, so th e metabolic effect of oxidative metabolic enzymes in human liver on C YH33 was not evaluated. The liver and intestine homogenates of dogs were collected, confirming that the amide hydrolysis of CYH33 was mainly catalyzed by carboxylesterase in liver. […]
transport across Caco-2 cells in the concentration range of 2.00 - 10.0 µM.
For detailed results of nonclinical pharmacokinetic and product metabol ism studies of […]
1.2.3 Results of Nonclinical Toxicological Study […]
tidal volume (TV), respiratory volume (MV) per minute and frequency of respiration (Rf) […]
on the central n ervous system (CNS) noticed.
The acute toxicity assay confirmed that the MTD was ≥ 600 mg/kg in SD rats, and the maximum tolerated dose (MTD) was >120 mg/kg in beagle dogs. The long-term toxicity […]
were greater than those in males, and the highest non-severely toxic dose (HNSTD) was 8 mg/kg in males and 3 mg/kg in females. […]

COC(=O)Nc1cc(C(F)(F)F)c(-c2nc(N3CCOCC3)c3cc(CN4CCN(S(C)(=O)=O)CC4)cn3n2)cn1 [CYH33, methyl (5-(6-((4-(methylsulfonyl)piperazin-1-yl)methyl)−4-morpholinopyrrolo[2,1-f][1,2,4]triazin-2-yl)−4-(trifluoromethyl)pyridin-2-yl)carbamate]
human equivalent dose (HED) of long-term HNSTD of rats (females), critical toxic dose: about 30 mg
